Tests used:
[1] = system: iCasp9-HDFs; experiment: live imaging of fibroblast removal in the 3D microfluidic co-culture device; format: cell-based, human; settings: 10 nM CID after 7 days of co-culture
Description: More specifically, the molds for the 2-channel microfluidic devices were constructed using stereolithography (Proto Labs). Polydimethylsiloxane (PDMS) was cured at a standard mixing ratio overnight at 60° C. in the mold, and individual devices were cut and plasma-bonded to glass slides. To enhance ECM bonding to PDMS, the surface inside the tissue chamber of the devices was functionalized with 0.01% poly-L-lysine and 1% glutaraldehyde following plasma-activation and washed overnight in DI water. On the day of seeding, devices were soaked in 70% ethanol (EtOH) and dried. Acupuncture needles (300 μm diameter) (Hwato) were blocked in 0.1% (w/v) bovine serum albumin (BSA) (Sigma) in phosphate buffer saline (PBS) for 45 minutes and inserted through the two needle guides. Devices with needles were UV-sterilized for 15 minutes. Once the needles were inserted, a fibrinogen solution containing human umbilical vein endothelial cells (HUVECs) and growth-arrested human dermal fibroblasts (HDFs) were added into the tissue chamber with thrombin. To prepare the cells for seeding, HDFs or iCasp-9 HDFs were growth-arrested with 10 μg/mL mitomycin in FGM-2 for 2.5 hours and thoroughly washed 5 times in FBM. Both HUVECs and HDFs were lifted from culture plates using TrypLE Express (Gibco), centrifuged at 200 g for 4 minutes, and resuspended to a concentration of 20 million cells/mL in EGM-2. […]

[2] = system: primary human hepatocytes; experiment: hepatocyte albumin and urea in tri-culture microfluidic devices; format: cell-based; settings: 50 nM CID after 5 days of tri-culture
Source text: Specifically, MPCC were fabricated as described previously (S. R. Khetani and S. N. Bhatia (2005) Nat. Biotechnol 26, 120; S. March et al. (2015) Nat. Protoc. 10, 2007). Briefly, collagen was adsorbed in each well of a 96 well plate (glass bottom), and then patterned using an elastomeric polydimethysiloxane mold and oxygen plasma gas ablation. Human hepatocytes were thawed and seeded (70 k/well) on the collagen islands (500 μm with 1,200 μm center-to-center spacing). Adhered hepatocytes (˜10 k/well) were allowed to spread overnight before fibroblasts were seeded for co-culture (7 k/well). Supernatant was collected from cultures every other day and stored at −20° C. Human albumin was quantified using an enzyme-linked immunosorbent assay using a sheep anti-rat albumin antibody (ELISA) (Bethyl Laboratories) and 3,3′,5,5′-tetramethylbenzidine (TMB, Thermo Fisher). Urea concentration was measured using a colorimetric (diacetylmonoxime) assay with acid and heat (Stanbio Labs). CYP3A4 activity was assessed with the luminogenic P450-GloTM CYP450 assay kit (Promega) for nonlytic assays using cultured cells. Cultures were pre-treated with 2 μM rifampin or 1:1,000 DMSO vehicle control prepared in hepatocyte maintenance media for 72 hours (daily replenishment) where indicated.
Given that fibroblasts are only transiently required for supporting the formation of a functional vasculature, it was investigated whether CAMEO could be used in the vascularization of tissue constructs with organ-specific parenchymal cells without negatively affecting the function of the parenchymal cells. To investigate this, a tri-culture system of HUVECs, iCasp9-HDFs, and primary human hepatocytes was employed in the microfluidic device. […] To evaluate whether the hepatocytes remained functional after CID treatment, levels of albumin and urea, markers for hepatic protein synthesis function and nitrogen metabolism, respectively, were measured in the media.

CC[C@H](C(=O)N1CCCC[C@H]1C(=O)O[C@H](CCc1ccc(OC)c(OC)c1)c1cccc(OCC(=O)NCC(CNC(=O)COc2cccc([C@@H](CCc3ccc(OC)c(OC)c3)OC(=O)[C@@H]3CCCCN3C(=O)[C@@H](CC)c3cc(OC)c(OC)c(OC)c3)c2)CN(C)C)c1)c1cc(OC)c(OC)c(OC)c1 [CID, AP20187]
time by which most of the fibroblast population was removed [1]: ≤ 10 h
time to rapid rounding of iCasp9-HDFs [1]: ≤ 5 h
secretive functions of the hepatocytes [2]: did not negatively affect
secreted albumin versus vehicle control ([2]; day 7): statistically higher level
secreted urea versus vehicle control ([2]; day 7): statistically higher level
